Test results published in PMC12016531 (Applied and Environmental Microbiology, 2025).

Tests used:
[1] = test system: all tested gram-negative strains; test: MIC/MBC microdilution, summary over gram-negative strains; type: cell-based; conditions: up to 100 µM
Protocol: The microdilution method ([25]) was used to measure the MIC of mycoidesin against indicator strains (Table S2). HPLC-purified mycoidesin was weighed and dissolved in a liquid culture medium to prepare various concentrations of mycoidesin (200.00, 100.00, 50.00, 25.00, 12.50, 6.25, 3.13, 1.56, 0.78, 0.39, 0.20, and 0.10 µM). A volume of 50 µL of different concentrations of mycoidesin solutions and 50 µL culture (1 × 10^6 CFU/mL) of the indicator strain were mixed in 96-well plates. The final concentrations of mycoidesin were 100.00, 50.00, 25.00, 12.50, 6.25, 3.13, 1.56, 0.78, 0.39, 0.20, 0.10, and 0.05 µM. […] The minimum bactericidal concentration (MBC) was the lowest concentration that killed 99.9% of the bacterial population. Nisin A was purified (Cayman Chemical, USA) as previously described ([26]) and was used to measure and compare the MIC values of L. monocytogenes strains and mycoidesin.

[2] = test system: Bacillus cereus CMCC63301; test: Intracellular accumulation of UDP-MurNAc-pentapeptide; type: cell-based; conditions: mycoidesin 1× and 2× MIC, vancomycin 10× MIC; 60 min; chloramphenicol 130 µg/mL pre-incubation 15 min; HPLC, MS
Protocol: Bacillus cereus CMCC63301 and L. monocytogenes ATCC19111 were grown to an OD600 of 0.3 and incubated with chloramphenicol (130 µg/mL) for 15 min. Mycoidesin (1× and 2× MIC) and vancomycin (10× MIC; positive control) were added and incubated for 60 min. The cells were collected, added to boiling water, treated for 15 min, centrifuged, and the supernatant was lyophilized. The intracellular accumulation of the peptidoglycan precursor UDP-MurNAc-pentapeptide was analyzed using HPLC (Hypersil ODS column) and identified via mass spectrometry ([27]).

[3] = test system: Bacillus cereus CMCC63301; test: Time-kill curves (OD600 and CFU); type: cell-based
Text: Cell growth was monitored hourly by measuring CFU on TSB plates and OD600 values of the cultures.

[4] = test system: L. monocytogenes ATCC 7644; test: MIC/MBC microdilution; type: cell-based, Listeria monocytogenes; conditions: lowest concentration that killed 99.9%; TSB-YE; highest concentration 100 µM
[5] = test system: L. monocytogenes ATCC 13932; test: MIC/MBC microdilution; type: cell-based, Listeria monocytogenes; conditions: lowest concentration that killed 99.9%; TSB-YE; highest concentration 100 µM
[6] = test system: L. monocytogenes ATCC 19118; test: MIC/MBC microdilution; type: cell-based, Listeria monocytogenes; conditions: lowest concentration that killed 99.9%; TSB-YE; highest concentration 100 µM
B. cereus CMCC63301 = test: Potassium release and SEM (cell membrane damage); type: cell-based, Bacillus cereus; conditions: potassium release 1×, 2×, 4× MIC, 1 h; SEM 2× and 4× MIC, 3 h, 30°C
Protocol: The amount of potassium released was measured using a HI96750 Potassium Photometer.
Bacillus cereus CMCC63301 and L. monocytogenes ATCC19111 were grown in TSB medium to an OD600 of 0.3. […] The cells were harvested after centrifugation (6,000 × g, 10 min), washed with PBS buffer thrice, and fixed with 2.5% (vol/vol) glutaraldehyde for 12 h at 4°C. Subsequently, the cells were subjected to gradient dehydration for 10 min, treated with isoamyl acetate for 10 min, dried with a lyophilizer for 12 h, coated with gold-palladium, and observed using a Zeiss Gemini360 instrument ([18]).

[7] = test system: L. monocytogenes ATCC 19117; test: MIC/MBC microdilution; type: cell-based, Listeria monocytogenes; conditions: lowest concentration that killed 99.9%; TSB-YE; highest concentration 100 µM
[8] = test system: L. monocytogenes ATCC 19112; test: MIC/MBC microdilution; type: cell-based, Listeria monocytogenes; conditions: lowest concentration that killed 99.9%; TSB-YE; highest concentration 100 µM
L. monocytogenes LM201 = test: MIC/MBC microdilution; type: cell-based, Listeria monocytogenes; conditions: lowest concentration that killed 99.9%; TSB-YE; highest concentration 100 µM

## C/C=C1\NC(=O)CNC(=O)[C@H](CCSC)NC(=O)[C@@H]2CS[C@@H](C)[C@@H](NC(=O)[C@@H]3CSC[C@@H](NC(=O)[C@H](CC(C)C)NC(=O)[C@H](CC(N)=O)NC(=O)[C@@H](N)Cc4ccc(O)cc4)C(=O)N[C@@H](C)C(=O)N[C@@H](C)C(=O)N[C@@H]([C@@H](C)CC)C(=O)N[C@@H](C)C(=O)N[C@@H](CC(=O)O)C(=O)N[C@@H](C)C(=O)N[C@@H](C)C(=O)NCC(=O)N[C@@H](CC(C)C)C(=O)N[C@@H](CCCCN)C(=O)NCC(=O)N[C@@H](CC(N)=O)C(=O)N[C@@H](Cc4ccc(O)cc4)C(=O)NCC(=O)N[C@@H](CCCCN)C(=O)N[C@@H](Cc4ccccc4)C(=O)N3)C(=O)N[C@@H](Cc3ccc(O)cc3)C(=O)N[C@H](CSC[C@@H](C(=O)NCC(=O)N[C@@H](CO)C(=O)O)NC(=O)[C@H](CO)NC(=O)[C@H](C(C)C)NC1=O)C(=O)N[C@@H](C)C(=O)N[C@@H](CCC(=O)O)C(=O)N2 [mycoidesin]
[1]
  antimicrobial activity: no antimicrobial activity
[2]
  Intracellular accumulation of UDP-MurNAc-pentapeptide: observed
[3]; 1× MIC (1.56 µM), TSB, 30°C, 3 h, OD600 and CFU
  effect on growth: suppressed the growth
[3]; 2× MIC (3.13 µM), TSB, 30°C, 3 h, OD600 and CFU
  effect on growth: completely inhibited its growth
[3]; 4× and 8× MIC (6.25 and 12.50 µM), TSB, 30°C, 3 h, OD600 and CFU
  effect on viable cells: caused cell death after 2 h of treatment
[3]; high concentrations (2×–8× MIC, 3.13–12.5 µM)
  type of antimicrobial effect: bactericidal effect
[3]; low concentration (1× MIC, 1.56 µM)
  type of antimicrobial effect: bacteriostatic effect
[4]
  MBC: NA (No activity was detected even at the highest concentration of mycoidesin (100 µM))
[5]
  MBC: NA (No activity was detected even at the highest concentration of mycoidesin (100 µM))
[6]
  MBC: NA (No activity was detected even at the highest concentration of mycoidesin (100 µM))
B. cereus CMCC63301
  cell membrane damage: caused damage to the cell membrane
[7]
  MBC: NA (No activity was detected even at the highest concentration of mycoidesin (100 µM))
[8]
  MBC: NA (No activity was detected even at the highest concentration of mycoidesin (100 µM))
L. monocytogenes LM201
  MBC: NA (No activity was detected even at the highest concentration of mycoidesin (100 µM))
